Reference: the supplement of paper PMC11061612

Key:
Assay in all cases: Bliss excess, mean over the matrix (fraction); higher = more synergy
42-MG-BA (Glioblastoma) = test system: 42-MG-BA (Glioblastoma)
Outline: (§1)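 Cell lines grown in DMEM/F12 or RPMI with 10% FBS were plated in 1536-well plates and held 24 hours at 37°C, 5% CO2 before 72 hours of exposure to two-drug dose matrices, with DMSO typically at 0.2%. CellTiter-Glo 2.0 luminescence gave viability, which was converted to inhibition. Vehicle wells were set to 0 and blank wells to 1. Combination Emax is the second-highest inhibition in the matrix, and Bliss excess is the observed combination effect minus the expected EA + EB − EA·EB, where EA and EB are the single-agent effects.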

AGS (Gastric Carcinoma) = test system: AGS (Gastric Carcinoma)
Outline: as §1

[1] = test system: CCRF-CEM (T-Lymphoblastic Leukemia)
Outline: as §1

[2] = test system: COLO-205 (Colorectal Carcinoma)
Outline: as §1

[3] = test system: Daoy (Other Solid Carcinomas)
Outline: as §1

[4] = test system: HCC-78 (Lung Adenocarcinoma)
Outline: as §1

HOS (Osteosarcoma) = test system: HOS (Osteosarcoma)
Outline: as §1

[5] = test system: Hs-578-T (Breast Carcinoma)
Outline: as §1

KELLY (Neuroblastoma) = test system: KELLY (Neuroblastoma)
Outline: as §1

[6] = test system: KURAMOCHI (Ovarian Carcinoma)
Outline: as §1

[7] = test system: LB831-BLC (Bladder Carcinoma)
Outline: as §1

[8] = test system: LU-135 (Small Cell Lung Carcinoma)
Outline: as §1

[9] = test system: ME-1 (Acute Myeloid Leukemia)
Outline: as §1

[10] = test system: NCI-H82 (Small Cell Lung Carcinoma)
Outline: as §1

[11] = test system: OVCA420 (Ovarian Carcinoma)
Outline: as §1

[12] = test system: RC-K8 (B-Cell Non-Hodgkin's Lymphoma)
Outline: as §1

[13] = test system: RO82-W-1 (Thyroid Gland Carcinoma)
Outline: as §1

[14] = test system: SNU-5 (Gastric Carcinoma)
Outline: as §1

T98G (Glioblastoma) = test system: T98G (Glioblastoma)
Outline: as §1

[15] = test system: TE-15 (Esophageal Squamous Cell Carcinoma)
Outline: as §1

SMILES	Bliss excess (42-MG-BA (Glioblastoma))	Bliss excess (AGS (Gastric Carcinoma))	Bliss excess [1]	Bliss excess [2]	Bliss excess [3]	Bliss excess [4]	Bliss excess (HOS (Osteosarcoma))	Bliss excess [5]	Bliss excess (KELLY (Neuroblastoma))	Bliss excess [6]	Bliss excess [7]	Bliss excess [8]	Bliss excess [9]	Bliss excess [10]	Bliss excess [11]	Bliss excess [12]	Bliss excess [13]	Bliss excess [14]	Bliss excess (T98G (Glioblastoma))	Bliss excess [15]
CN(C)CCCOc1ccc(-c2ccc3ncc4c(c3c2)n(C2CCOCC2)c(=O)n4C)cn1 [AZD0156] + O=C(c1cc(Cc2n[nH]c(=O)c3ccccc23)ccc1F)N1CCN(C(=O)C2CC2)CC1 [Olaparib] (first compound max 3 µM, partner max 3 µM)	0.0602	0.0736	0.158	0.125	0.0714	0.109	0.046	0.0937	0.0009	-0.0737	-0.0407	0.0632	-0.0065	0.0369	0.0121	-0.0046	-0.0299	0.015	-0.0085	0.0576
C=CCn1c(=O)c2cnc(Nc3ccc(N4CCN(C)CC4)cc3)nc2n1-c1cccc(C(C)(C)O)n1 [AZD1775] + C1CN(CCC1(C(=O)N[C@@H](CCO)C2=CC=C(C=C2)Cl)N)C3=NC=NC4=C3C=CN4 [Capivasertib] (first compound max 3 µM, partner max 3 µM)	-0.0419	0.0159	0.0122	0.102	-0.0474	-0.0672	-0.0141	-0.102	-0.0393	-0.072	-0.0434	0.0467	-0.0726	0.003	-0.0518	-0.002	-0.0678	-0.0655	0.0076	0.0494
CN(CCO)CC[C@H](CSc1ccccc1)Nc1ccc(S(=O)(=O)NC(=O)c2ccc(N3CCC([C@@H](O)c4ccccc4-c4ccc(Cl)cc4)CC3)cc2)cc1S(=O)(=O)C(F)(F)F [AZD4320] + C1CN(CCC1(C(=O)N[C@@H](CCO)C2=CC=C(C=C2)Cl)N)C3=NC=NC4=C3C=CN4 [Capivasertib] (first compound max 1 µM, 7x7, partner max 3 µM)	-0.0479	-0.0081	0.0753	-0.0031	0.0185	-0.034	-0.0467	-0.0198	-0.0433	-0.0393	-0.0212	0.0051	-0.0374	0.0177	-0.0601	-0.0241	-0.0513	-0.0453	-0.0371	-0.042
CN(CCO)CC[C@H](CSc1ccccc1)Nc1ccc(S(=O)(=O)NC(=O)c2ccc(N3CCC([C@@H](O)c4ccccc4-c4ccc(Cl)cc4)CC3)cc2)cc1S(=O)(=O)C(F)(F)F [AZD4320] + C=CCn1c(=O)c2cnc(Nc3ccc(N4CCN(C)CC4)cc3)nc2n1-c1cccc(C(C)(C)O)n1 [AZD1775] (first compound max 1 µM, partner max 1 µM)	-0.027	0.0191	0.0065	0.0243	-0.0261	-0.0072	0.0337	0.022	0.0505	0.0419	0.0317	0.0636	0.0475	0.0113	-0.0291	0.0829	-0.0364	0.0426	0.0317	-0.0137
CN(CCO)CC[C@H](CSc1ccccc1)Nc1ccc(S(=O)(=O)NC(=O)c2ccc(N3CCC([C@@H](O)c4ccccc4-c4ccc(Cl)cc4)CC3)cc2)cc1S(=O)(=O)C(F)(F)F [AZD4320] + CCN(CCO)CCCOc1ccc2c(Nc3cc(CC(=O)Nc4cccc(F)c4)[nH]n3)ncnc2c1 [AZD2811] (first compound max 1 µM, 7x7, partner max 1 µM)	0.15	0.192	-0.0228	-0.0154	0.0245	-0.0361	-0.0288	0.183	0.051	0.0224	0.0234	-0.0124	0.0068	0.0891	-0.0352	0.17	0.0032	-0.0115	0.0346	-0.0393
CN(CCO)CC[C@H](CSc1ccccc1)Nc1ccc(S(=O)(=O)NC(=O)c2ccc(N3CCC([C@@H](O)c4ccccc4-c4ccc(Cl)cc4)CC3)cc2)cc1S(=O)(=O)C(F)(F)F [AZD4320] + CN(C)CCCOc1ccc(-c2ccc3ncc4c(c3c2)n(C2CCOCC2)c(=O)n4C)cn1 [AZD0156] (first compound max 1 µM, 7x7, partner max 1 µM)	-0.0225	-0.0561	0.023	-0.054	0.0118	-0.033	-0.0317	-0.0178	0.077	-0.0367	-0.0403	0.0332	-0.0069	0.012	-0.0206	0.0161	-0.0258	0.0286	-0.044	-0.0455
CN(CCO)CC[C@H](CSc1ccccc1)Nc1ccc(S(=O)(=O)NC(=O)c2ccc(N3CCC([C@@H](O)c4ccccc4-c4ccc(Cl)cc4)CC3)cc2)cc1S(=O)(=O)C(F)(F)F [AZD4320] + C[C@@H]1COCCN1C2=NC(=NC(=C2)C3(CC3)[S@](=N)(=O)C)C4=C5C=CNC5=NC=C4 [AZD6738] (first compound max 1 µM, 7x7, partner max 10 µM)	0.0154	-0.0162	0.0394	-0.0575	0.0178	-0.0564	0.0111	-0.136	0.033	0.0158	-0.0415	0.0417	0.0166	-0.0251	0.006	-0.011	-0.0025	0.0061	-0.0468	-0.041
COc1nnc2ccc(N3CCC(c4ccc(OCCN5CCN(C)C(=O)[C@H]5C)cc4)CC3)nn12 [AZD5153] + CN(CC[C@H](CSC1=CC=CC=C1)NC2=C(C=C(C=C2)S(=O)(=O)NC(=O)C3=CC=C(C=C3)N4CCC(CC4)[C@H](C5=CC=CC=C5C6=CC=C(C=C6)Cl)O)S(=O)(=O)C(F)(F)F)CCO [AZD4320] (first compound max 1 µM, 7x7, partner max 1 µM)	0.101	-0.03	–	0.0335	0.113	–	–	–	–	–	–	0.0221	–	–	-0.0203	-0.0145	–	0.0566	–	–
CC(=O)c1c(C)c2cnc(Nc3ccc(N4CCNCC4)cn3)nc2n(C2CCCC2)c1=O [Palbociclib] + CN(CC[C@H](CSC1=CC=CC=C1)NC2=C(C=C(C=C2)S(=O)(=O)NC(=O)C3=CC=C(C=C3)N4CCC(CC4)[C@H](C5=CC=CC=C5C6=CC=C(C=C6)Cl)O)S(=O)(=O)C(F)(F)F)CCO [AZD4320] (first compound max 10 µM, 7x7, partner max 1 µM)	-0.061	-0.008	–	-0.0497	0.0118	–	–	–	–	–	–	0.0316	–	–	-0.0591	0.0351	–	-0.0446	–	–
COc1cccc(OCCCN)c1-c1cc(Nc2cnc(C#N)cn2)n[nH]1 [Prexasertib] + O=C(c1cc(Cc2n[nH]c(=O)c3ccccc23)ccc1F)N1CCN(C(=O)C2CC2)CC1 [Olaparib] (first compound max 1 µM, 7x7, partner max 10 µM)	-0.0399	0.0033	0.0024	-0.0301	0.0261	-0.0733	-0.0168	-0.0324	-0.0742	-0.0891	-0.0175	-0.0079	-0.0619	-0.0735	-0.0374	–	-0.0731	-0.0633	-0.134	-0.0427
COc1cc2c(cc1OCCCCCOc1cc3c(cc1OC)C(=O)N1C=C(C)C[C@H]1C=N3)N=C[C@@H]1CC(C)=CN1C2=O [SG3199] + O=C(c1cc(Cc2n[nH]c(=O)c3ccccc23)ccc1F)N1CCN(C(=O)C2CC2)CC1 [Olaparib] (first compound max 0.001 µM, 7x7, partner max 10 µM)	0.0075	-0.0061	-0.0045	-0.0256	-0.0171	-0.0294	-0.0232	-0.0422	0.0142	-0.0693	-0.0486	0.0232	-0.013	-0.0075	-0.0268	–	-0.0704	-0.0105	-0.0486	-0.0307
CCc1c2c(nc3ccc(O)cc13)-c1cc3c(c(=O)n1C2)COC(=O)[C@]3(O)CC [SN-38] + CN(C)CCCOc1ccc(-c2ccc3ncc4c(c3c2)n(C2CCOCC2)c(=O)n4C)cn1 [AZD0156] (first compound max 0.3 µM, 7x7, partner max 1 µM)	0.0561	-0.0061	0.0508	0.0073	0.0666	-0.0066	0.0114	0.169	0.0155	0.0421	0.0223	-0.0201	-0.008	0.0287	-0.008	–	-0.088	-0.0237	-0.03	0.0146
